Experimental data taken from ChEMBL document CHEMBL1134985, “Design and synthesis of 6-substituted amino-4-oxa-1-azabicyclo[3,2,0]heptan-7-one derivatives as cysteine proteases inhibitors” (Bioorg Med Chem Lett, 2002).

What was measured:
Cathepsin B = Cathepsin B (Homo sapiens, UniProt P07858); assay: In vitro Inhibitory activity against Cathepsin B cysteine protease by using Cbz-Phe-Arg-AMC
Procathepsin L = biological target: T1, Procathepsin L (Rattus norvegicus, UniProt P07154); assay: In vitro Inhibitory activity against Cathepsin L cysteine protease by using Cbz-Phe-Arg-AMC
T1 sequence (P07154 whole entry): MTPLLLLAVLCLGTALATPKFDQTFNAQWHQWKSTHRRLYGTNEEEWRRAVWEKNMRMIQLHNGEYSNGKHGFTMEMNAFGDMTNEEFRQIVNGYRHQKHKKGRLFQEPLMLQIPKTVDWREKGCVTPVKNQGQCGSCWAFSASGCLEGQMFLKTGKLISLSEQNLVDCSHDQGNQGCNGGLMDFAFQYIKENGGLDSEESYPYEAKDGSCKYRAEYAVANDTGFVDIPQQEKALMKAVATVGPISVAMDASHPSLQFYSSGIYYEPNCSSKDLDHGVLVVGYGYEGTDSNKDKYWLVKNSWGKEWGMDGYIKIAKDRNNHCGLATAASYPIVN

Cathepsin K = biological target: T2, Cathepsin K (Homo sapiens, UniProt P43235); assay: In vitro Inhibitory activity against Cathepsin K cysteine protease by using Cbz-Phe-Arg-AMC
T2 sequence (P43235 whole entry): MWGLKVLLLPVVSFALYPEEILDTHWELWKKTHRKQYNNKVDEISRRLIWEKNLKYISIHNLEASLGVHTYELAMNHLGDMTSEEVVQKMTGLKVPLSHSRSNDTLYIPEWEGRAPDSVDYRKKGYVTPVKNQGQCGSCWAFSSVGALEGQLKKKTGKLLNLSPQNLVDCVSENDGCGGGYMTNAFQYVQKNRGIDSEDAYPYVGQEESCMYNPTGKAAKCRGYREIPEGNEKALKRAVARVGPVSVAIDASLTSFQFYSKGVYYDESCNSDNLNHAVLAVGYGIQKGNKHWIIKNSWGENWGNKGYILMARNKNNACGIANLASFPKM

Cathepsin S = Cathepsin S (Homo sapiens, UniProt P25774); assay: In vitro Inhibitory activity against Cathepsin S cysteine protease by using Cbz-Val-Val-Arg-AMC
Cathepsin S, sequence (P25774 whole entry): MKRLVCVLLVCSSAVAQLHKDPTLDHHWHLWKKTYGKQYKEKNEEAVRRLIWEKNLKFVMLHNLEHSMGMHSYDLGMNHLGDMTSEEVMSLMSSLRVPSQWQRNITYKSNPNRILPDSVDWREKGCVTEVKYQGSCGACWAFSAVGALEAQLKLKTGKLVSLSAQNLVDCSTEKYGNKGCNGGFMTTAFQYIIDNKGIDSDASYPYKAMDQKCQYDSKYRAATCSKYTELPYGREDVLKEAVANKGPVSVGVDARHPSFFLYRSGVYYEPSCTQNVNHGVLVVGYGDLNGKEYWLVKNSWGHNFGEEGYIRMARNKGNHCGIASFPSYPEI

| SMILES | IC50 (Cathepsin B) [nM] | IC50 (Procathepsin L) [nM] | IC50 (Cathepsin K) [nM] | IC50 (Cathepsin S) [nM] |
| --- | --- | --- | --- | --- |
| O=C(N[C@H](C(=O)N[C@@H]1C(=O)N2CCO[C@H]12)c1ccccc1)OCc1ccccc1 | > 50000 | 1830 | – | – |
| CC(C)[C@H](NC(=O)OCc1ccccc1)C(=O)N[C@@H]1C(=O)N2CCO[C@H]12 | 30000 | 600 | 100 | 260 |
| O=C(N[C@@H](Cc1ccccc1)C(=O)N[C@@H]1C(=O)N2CCO[C@H]12)OCc1ccccc1 | 1760 | 85 | 1630 | 430 |
| O=C(N[C@@H](Cc1ccccc1)C(=O)N[C@@H]1C(=O)N2CCO[C@@H]12)OCc1ccccc1 | 12200 | 4 | 5 | 77 |
| C[C@H](NC(=O)OCc1ccccc1)C(=O)N[C@@H]1C(=O)N2CCO[C@H]12 | > 50000 | 38000 | > 2500 | > 2500 |
